This passage reports inhibition results from ChEMBL document CHEMBL1159041, “A study of the effects of substituents on the selectivity of the binding of N-arylaminomethylene malonate inhibitors to DHODH” (Bioorg Med Chem Lett, 2010).

Assay [1] deals with T1, Dihydroorotate dehydrogenase (Plasmodium falciparum) (UniProt Q54A96).
T1 sequence (whole entry): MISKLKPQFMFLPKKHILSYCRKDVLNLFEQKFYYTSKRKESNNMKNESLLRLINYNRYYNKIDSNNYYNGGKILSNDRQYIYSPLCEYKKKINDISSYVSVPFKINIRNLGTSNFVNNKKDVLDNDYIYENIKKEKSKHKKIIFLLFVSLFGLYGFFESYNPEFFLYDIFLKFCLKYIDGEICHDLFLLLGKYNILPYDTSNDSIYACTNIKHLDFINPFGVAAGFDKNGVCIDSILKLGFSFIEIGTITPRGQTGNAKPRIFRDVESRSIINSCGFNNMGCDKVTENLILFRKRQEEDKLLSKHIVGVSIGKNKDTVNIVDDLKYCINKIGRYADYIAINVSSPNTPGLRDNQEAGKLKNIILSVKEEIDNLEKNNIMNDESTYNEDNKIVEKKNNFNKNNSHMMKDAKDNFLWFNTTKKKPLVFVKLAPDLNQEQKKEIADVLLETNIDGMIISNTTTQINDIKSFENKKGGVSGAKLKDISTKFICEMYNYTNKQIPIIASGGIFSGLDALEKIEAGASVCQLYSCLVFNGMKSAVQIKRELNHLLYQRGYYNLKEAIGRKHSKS
The assay can be described thus: Inhibition of Plasmodium falciparum DHODH at 50 uM.

For assay [2], the target named is Dihydroorotate dehydrogenase (quinone), mitochondrial (Homo sapiens) (UniProt Q02127). The assay can be described thus: Inhibition of human DHODH at 50 uM.
Chain of Dihydroorotate dehydrogenase (quinone), mitochondrial (Homo sapiens) (Q02127 whole entry): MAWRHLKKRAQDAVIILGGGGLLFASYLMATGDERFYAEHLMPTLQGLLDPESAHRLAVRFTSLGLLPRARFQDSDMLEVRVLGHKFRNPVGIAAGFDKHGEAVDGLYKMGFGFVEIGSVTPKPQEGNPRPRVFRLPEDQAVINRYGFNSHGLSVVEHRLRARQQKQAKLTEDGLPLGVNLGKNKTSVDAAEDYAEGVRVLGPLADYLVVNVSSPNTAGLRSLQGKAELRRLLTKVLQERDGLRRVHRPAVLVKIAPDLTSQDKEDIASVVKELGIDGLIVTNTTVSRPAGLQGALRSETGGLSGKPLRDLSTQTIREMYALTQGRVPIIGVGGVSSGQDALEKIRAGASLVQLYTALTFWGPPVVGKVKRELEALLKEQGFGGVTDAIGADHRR

The inhibition is the change of the read-out against control, counted positive when it falls. A low value points to a weak effect. Consider `CCOC(=O)/C(C#N)=C\Nc1ccc(Cl)c(C(=O)OCC)c1`, for which the inhibition in assay [1] came to 24%; in assay [2] it was 14%.

`CCOC(=O)c1ccc(NC=C2C(=O)OC(C)(C)OC2=O)cc1`: the inhibition amounted to 0% in assay [1] and 3% in assay [2].

`CCOC(=O)c1cccc(NC=C2C(=O)OC(C)(C)OC2=O)c1`: the figures for the inhibition in assay [1] and in assay [2] were 0% and 1%, respectively.

Consider `CC1(C)OC(=O)C(=CNc2ccc(Cl)c(C(=O)O)c2)C(=O)O1`, for which the figures for the inhibition in assay [1] and in assay [2] were 50% and 21%, respectively.

Take `CCOC(=O)/C(C#N)=C\Nc1ccc(C(=O)O)cc1`: the inhibition was 0% in assay [1] and 29% in assay [2].

As to `CCOC(=O)c1ccc(NC=C2C(=O)OC(C)(C)OC2=O)cc1Cl`, the inhibition stood at 12% in assay [1] and 0% in assay [2].

In the case of `CCOC(=O)/C(C#N)=C\Nc1cccc(C(=O)O)c1`, the inhibition in assay [1] came to 0%; in assay [2], 23%.

As for `CCOC(=O)C(=CNc1ccc(Cl)c(C(=O)O)c1)C(=O)OCC`, the inhibition worked out at 37% in assay [1] and 39% in assay [2].

Turning to `CCOC(=O)/C(C#N)=C\Nc1ccc(Cl)c(C(=O)O)c1`, the figures for the inhibition in assay [1] and in assay [2] were 44% and 45%, respectively.

On to `CCOC(=O)C(=CNc1ccc(C(=O)OCC)cc1)C(=O)OCC`, for which the inhibition in assay [1] came to 15%; in assay [2], 4%.

Take `CCOC(=O)/C(C#N)=C\Nc1ccc(C(=O)O)c(Cl)c1`: the values for the inhibition in assay [1] and in assay [2] were 33% and 39%, respectively.

As for `CCOC(=O)C(=CNc1cccc(C(=O)O)c1)C(=O)OCC`, the inhibition in assay [1] turned out to be 54%; in assay [2], 33%.

Consider `CCOC(=O)/C(C#N)=C\Nc1cccc(C(=O)OCC)c1`, for which the inhibition in assay [1] came out at 23%; in assay [2], 2%.

Take `CCOC(=O)C(=CNc1ccc(C(=O)O)cc1)C(=O)OCC`: the inhibition in assay [1] was found to be 43%; in assay [2], 37%.

`CCOC(=O)C(=CNc1ccc(Cl)c(C(=O)OCC)c1)C(=O)OCC`: the inhibition in assay [1] came to 39%; in assay [2], 16%.

In the case of `CC1(C)OC(=O)C(=CNc2ccc(C(=O)O)cc2)C(=O)O1`, the inhibition in assay [1] worked out at 28%; in assay [2], 32%.

Consider `CCOC(=O)C(=CNc1cccc(C(=O)OCC)c1)C(=O)OCC`, for which the results for the inhibition in assay [1] and in assay [2] were 0% and 5%, respectively.

For `CC1(C)OC(=O)C(=CNc2ccc(C(=O)O)c(Cl)c2)C(=O)O1`, the inhibition in assay [1] worked out at 41%; in assay [2], 21%.

For the compound `CCOC(=O)C(=CNc1ccc(C(=O)OCC)c(Cl)c1)C(=O)OCC`, the results for the inhibition in assay [1] and in assay [2] were 60% and 8%, respectively.

`CC1(C)OC(=O)C(=CNc2cccc(C(=O)O)c2)C(=O)O1`: the inhibition in assay [1] stood at 25%; in assay [2], 27%.

As for `CCOC(=O)/C(C#N)=C\Nc1ccc(C(=O)OCC)c(Cl)c1`, the inhibition in assay [1] was determined as 66%; in assay [2] it was 12%.

On to `CCOC(=O)c1cc(NC=C2C(=O)OC(C)(C)OC2=O)ccc1Cl`, for which the inhibition in assay [1] turned out to be 0%; in assay [2], 5%.

Turning to `CCOC(=O)/C(C#N)=C\Nc1ccc(C(=O)OCC)cc1`, the inhibition in assay [1] and in assay [2] was 2% in each case.
